pIC50: −log10 of the molar value.
Experiments:
Acetylcholinesterase = Acetylcholinesterase (Electrophorus electricus, UniProt O42275); assay type: ADME
Description: Inhibition of electric eel AChE using acetylthiocholine iodide as substrate preincubated for 30 mins followed by substrate addition and measured after 30 mins by Ellman's method

PC-12 [1] = assay: cells; assay type: functional; conditions: Rattus norvegicus
PC-12 [2] = assay: cells; assay type: functional; conditions: Rattus norvegicus; remark: listed apart in the source
PC-12 [3] = assay: cells; assay type: functional; conditions: Rattus norvegicus; remark: listed apart in the source
PC-12 [4] = assay: cells; assay type: functional; conditions: Rattus norvegicus; remark: listed apart in the source
PC-12 [5] = assay: cells; assay type: functional; conditions: Rattus norvegicus; remark: listed apart in the source
PC-12 [6] = assay: Neuroprotective activity against H2O2 induced cytotoxicity in rat PC12 cells assessed as increase in cell viability pretreated for 3 hrs followed by H2O2 challenge measured after 24 hrs by MTT assay; assay type: functional, cell-based
Cholinesterase = Cholinesterase (Equus caballus, UniProt P81908)
Description: Inhibition of equine serum BuChE using S-butyrylthiocholine iodide as substrate preincubated with enzyme for 30 mins followed by substrate addition and measured after 30 mins by Ellman's method

[7] = n-Octanol-phosphate buffer partition co-efficient, log P of compound at pH 7.4 incubated for 48 hrs by UV spectrophotometry-based shake-flask method; assay type: physicochemical

Cholinesterase, sequence (P81908 whole entry): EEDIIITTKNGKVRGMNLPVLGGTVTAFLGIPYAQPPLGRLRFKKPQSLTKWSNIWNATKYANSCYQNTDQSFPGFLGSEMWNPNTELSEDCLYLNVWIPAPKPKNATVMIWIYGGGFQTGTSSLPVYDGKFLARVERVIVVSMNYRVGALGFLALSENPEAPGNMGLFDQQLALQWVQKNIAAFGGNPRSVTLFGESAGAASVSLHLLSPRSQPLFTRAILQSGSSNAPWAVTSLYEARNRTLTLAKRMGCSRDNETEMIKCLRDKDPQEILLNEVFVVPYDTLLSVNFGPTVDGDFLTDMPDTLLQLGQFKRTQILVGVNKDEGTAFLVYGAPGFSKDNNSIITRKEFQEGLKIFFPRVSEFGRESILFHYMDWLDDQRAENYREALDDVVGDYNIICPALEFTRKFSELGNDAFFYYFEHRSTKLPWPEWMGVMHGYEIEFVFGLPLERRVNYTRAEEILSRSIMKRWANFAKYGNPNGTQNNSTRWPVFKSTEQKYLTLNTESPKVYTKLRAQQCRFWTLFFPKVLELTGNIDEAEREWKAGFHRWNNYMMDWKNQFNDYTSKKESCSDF
Acetylcholinesterase, sequence (O42275 whole entry): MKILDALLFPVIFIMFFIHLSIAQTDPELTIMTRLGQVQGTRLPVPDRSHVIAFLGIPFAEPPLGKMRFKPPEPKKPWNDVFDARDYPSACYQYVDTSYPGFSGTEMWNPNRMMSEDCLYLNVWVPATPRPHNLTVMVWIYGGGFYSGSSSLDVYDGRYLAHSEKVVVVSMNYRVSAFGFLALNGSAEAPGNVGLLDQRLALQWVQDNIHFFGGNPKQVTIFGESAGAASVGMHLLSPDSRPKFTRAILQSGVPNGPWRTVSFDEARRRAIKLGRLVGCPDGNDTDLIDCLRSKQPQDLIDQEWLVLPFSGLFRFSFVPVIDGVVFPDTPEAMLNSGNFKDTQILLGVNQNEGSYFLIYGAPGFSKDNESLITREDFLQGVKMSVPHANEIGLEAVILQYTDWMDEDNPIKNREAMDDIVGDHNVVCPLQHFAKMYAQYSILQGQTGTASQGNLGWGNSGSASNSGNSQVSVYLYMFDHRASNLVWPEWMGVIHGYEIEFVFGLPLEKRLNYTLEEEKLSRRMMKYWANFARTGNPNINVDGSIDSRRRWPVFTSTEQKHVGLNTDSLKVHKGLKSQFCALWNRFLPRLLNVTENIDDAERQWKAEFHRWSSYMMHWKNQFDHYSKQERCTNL

Structure (SMILES)	pIC50 (Acetylcholinesterase)	viability at 1 µM (PC-12 [1]) [%]	viability at 5 µM (PC-12 [2]) [%]	viability at 10 µM (PC-12 [3]) [%]	viability at 30 µM (PC-12 [4]) [%]	viability at 50 µM (PC-12 [5]) [%]	Activity (PC-12 [6])	pIC50 (Cholinesterase)	logD at 48 h [7]
CC(=O)c1ccc(S(=O)(=O)Nc2ccc3nc4n(c(=O)c3c2)CCc2c-4[nH]c3ccccc23)cc1	< 4.00	46.7	48	54.4	57.7	59.8	Dose-dependent effect	4.59	
O=c1c2cc(NS(=O)(=O)c3cccc([N+](=O)[O-])c3)ccc2nc2n1CCc1c-2[nH]c2ccccc12	< 4.00	27	38.7	40.9	34	25.6		4.63	
CC(C)(C)c1ccc(S(=O)(=O)Nc2ccc3nc4n(c(=O)c3c2)CCc2c-4[nH]c3ccccc23)cc1	< 4.00	37.6	39.9	41.2	41.7	43.6		4.89	
O=c1c2cc(NS(=O)(=O)c3ccc(C(F)(F)F)cc3)ccc2nc2n1CCc1c-2[nH]c2ccccc12	< 4.00	43.6	54.9	56.1	56.5	60.1	Dose-dependent effect	5.08	3.01
COc1ccc(S(=O)(=O)Nc2ccc3nc4n(c(=O)c3c2)CCc2c-4[nH]c3ccccc23)cc1OC	4.29	40.4	44	45.2	47.7	51		4.96	
COC(=O)c1sccc1S(=O)(=O)Nc1ccc2nc3n(c(=O)c2c1)CCc1c-3[nH]c2ccccc12	< 4.00	35.9	42.5	39.9	39.8	38		< 4.00	
O=c1c2cc(NS(=O)(=O)c3ccc(Br)s3)ccc2nc2n1CCc1c-2[nH]c2ccccc12	4.08	52	52.3	55.1	56.2	58.2	Dose-dependent effect	4.22	2.91
O=c1c2cc(NS(=O)(=O)c3ccc(F)c(Cl)c3)ccc2nc2n1CCc1c-2[nH]c2ccccc12	4.07	48.1	50.8	58.1	59.4	61.1	Dose-dependent effect	5.33	2.81
O=c1c2cc(NS(=O)(=O)c3c(Cl)cccc3Cl)ccc2nc2n1CCc1c-2[nH]c2ccccc12	4.00	40.7	42.1	42.9	45.4	48.3		4.86	
O=c1c2cc(NS(=O)(=O)c3ccc(Cl)s3)ccc2nc2n1CCc1c-2[nH]c2ccccc12	< 4.00	43.5	48	55.1	56	54.5		4.11	
O=c1c2cc(NS(=O)(=O)c3cccs3)ccc2nc2n1CCc1c-2[nH]c2ccccc12	< 4.00	37.7	39.2	40.8	41.9	42.4		< 4.00	
O=c1c(O)c(-c2ccc(O)c(O)c2)oc2cc(O)cc(O)c12 [QUERCETIN]		48.9	56.3	57.9	60.6	62.7			
O=c1c2cc(NS(=O)(=O)c3ccc(OC(F)(F)F)cc3)ccc2nc2n1CCc1c-2[nH]c2ccccc12	4.46	51.6	55.9	60.1	61.8	63.8	Dose-dependent effect	5.40	3.62
O=c1c2cc(NS(=O)(=O)c3ccc([N+](=O)[O-])cc3)ccc2nc2n1CCc1c-2[nH]c2ccccc12	< 4.00	32.4	33	37.1	33.5	31		4.78	
COc1cc2c(cc1OC)C(=O)C(CC1CCN(Cc3ccccc3)CC1)C2 (stereo unspecified) [DONEPEZIL]		49.2	57.1	65.5	68.9	76.7			
COc1ccc(S(=O)(=O)Nc2ccc3nc4n(c(=O)c3c2)CCc2c-4[nH]c3ccccc23)cc1	< 4.00	39.3	51.8	42.3	43.2	49		5.10	
O=c1c2cc(NS(=O)(=O)c3cc(Cl)cc(Cl)c3)ccc2nc2n1CCc1c-2[nH]c2ccccc12	4.07	42.4	45.3	47.9	59.6	69.5	Dose-dependent effect	5.10	3.21
O=c1c2cc(NS(=O)(=O)c3ccc(Br)cc3)ccc2nc2n1CCc1c-2[nH]c2ccccc12	4.39	39.9	41.8	44.1	45.4	47.6		5.05	
O=c1c2cc(NS(=O)(=O)c3cccc(C(F)(F)F)c3)ccc2nc2n1CCc1c-2[nH]c2ccccc12	< 4.00	49.1	50.7	53.2	53.5	55.9		5.42	3.01
COc1ccc(S(=O)(=O)Nc2ccc3nc4n(c(=O)c3c2)CCc2c-4[nH]c3ccccc23)c(OC)c1	4.11	49.6	51.1	52	56	51.1		5.12	
O=c1c2cc(NS(=O)(=O)c3ccc(F)cc3)ccc2nc2n1CCc1c-2[nH]c2ccccc12	< 4.00	41.9	44.7	45.5	46.6	51.8		5.12	2.25
